IC50 data for 15 molecules are collected here from patent US20260356851A1, “TRICYCLIC COMPOUNDS AND USES THEREOF” (HUTCHMED LIMITED, priority 2023, published 2026).

Format in all cases: cell-based
For assay [1], the target named is T1, pERK1/2 (Thr202/Tyr204), NCI-1H358 (KRAS G12C) (Homo sapiens, UniProt P01116, G12C).
T1 construct: pERK1/2 HTRF read-out
Put plainly: Assay of intracellular pERK1/2 (Thr202/Tyr204) phosphorylation in NCI-H358 cells (KRAS G12C). As to conditions: pERK1/2, 2 days, read-out: NCI-H358 (KRAS G12C) IC50. A digest of the protocol:
(§1)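 HTRF detection of Thr202/Tyr204-phosphorylated ERK1/2 (665/615 nm ratio) in lysates from cells treated 2 days with serially 3-fold diluted compound.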

For assay [2], the target named is T2, pERK1/2 (Thr202/Tyr204), PANC-1 (KRAS G121D) (Homo sapiens, UniProt P01116, G12D).
T2 construct: pERK1/2 HTRF read-out
T2 sequence (P01116 1-188 isoform P01116-2 G12D): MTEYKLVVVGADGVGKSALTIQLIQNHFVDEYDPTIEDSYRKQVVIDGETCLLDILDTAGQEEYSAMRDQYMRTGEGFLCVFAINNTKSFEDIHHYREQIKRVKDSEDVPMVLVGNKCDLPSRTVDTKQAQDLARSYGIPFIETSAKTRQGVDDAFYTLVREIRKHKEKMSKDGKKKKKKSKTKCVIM
Put plainly: Assay of intracellular pERK1/2 (Thr202/Tyr204) phosphorylation in PANC-1 cells (KRAS G12D). The conditions noted are these: pERK1/2, 2 days, read-out: PANC-1 (KRAS G12D) IC50. A digest of the protocol:
as §1

Assay [3] deals with T3, pERK1/2 (Thr202/Tyr204), NCI-1H441 (KRAS G12V) (Homo sapiens, UniProt P01116, G12V).
T3 construct: pERK1/2 HTRF read-out
T3 sequence (P01116 1-188 isoform P01116-2 G12V): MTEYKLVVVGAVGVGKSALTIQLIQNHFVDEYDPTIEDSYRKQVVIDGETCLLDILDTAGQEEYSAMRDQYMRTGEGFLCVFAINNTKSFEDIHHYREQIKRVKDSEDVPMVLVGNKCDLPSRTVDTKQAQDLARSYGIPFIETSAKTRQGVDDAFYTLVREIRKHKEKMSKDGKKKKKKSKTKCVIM
The assay is described as follows: Assay of intracellular pERK1/2 (Thr202/Tyr204) phosphorylation in NCI-H441 cells (KRAS G12V). The conditions noted are these: pERK1/2, 2 days, read-out: NCI-H441 (KRAS G12V) IC50. The gist of the method: as §1

In general, pIC50 refers to the IC50 on a negative log10 scale, so that one unit is a factor of ten.

pIC50: −log10 of the molar value. Bounds are passed on as bounds.

T1 sequence (P01116 1-188 isoform P01116-2 G12C): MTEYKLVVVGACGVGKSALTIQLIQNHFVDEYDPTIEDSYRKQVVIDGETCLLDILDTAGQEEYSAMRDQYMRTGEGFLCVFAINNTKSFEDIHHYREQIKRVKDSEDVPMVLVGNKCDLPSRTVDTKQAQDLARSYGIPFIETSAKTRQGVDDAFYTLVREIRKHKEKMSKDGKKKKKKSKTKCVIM

Consider `CC(c1cccnc1N)N1CCOc2nc(-c3cc(N)cc(Cl)c3C3CC3)c(F)c3nc(OC[C@@]45CCCN4C[C@H](F)C5)nc1c23` (single isomer, unassigned) [Compound 74, 3-((R or S)-1-(5-(5-amino-3-chloro-2-cyclopropylphenyl)-4-fluoro-2-(((2R,7aS)-2-fluorotetrahydro-1H-pyrrolizin-7a(5H)-yl)methoxy)-8,9-dihydro-10H-7-oxa-1,3,6,10-tetraazacyclohepta[de]naphthalen-10-yl)ethyl)pyridin-2-amine], for which the pIC50 is 9.70 in assay [1], 8.40 in assay [2] and 9.40 in assay [3].
The corresponding values for `CC(c1cccnc1N)N1CCOc2nc(-c3cc(N)cc(Cl)c3C3CC3)c(F)c3nc(OC[C@@]45CCCN4C[C@H](F)C5)nc1c23` (single isomer, unassigned) [Compound 75, 3-((R or S)-1-(5-(5-amino-3-chloro-2-cyclopropylphenyl)-4-fluoro-2-(((2R,7aS)-2-fluorotetrahydro-1H-pyrrolizin-7a(5H)-yl)methoxy)-8,9-dihydro-10H-7-oxa-1,3,6,10-tetraazacyclohepta[de]naphthalen-10-yl)ethyl)pyridin-2-amine] are 8.30, 7.40 and 7.96.
Consider `Cc1cc(N)cc(-c2nc3c4c(nc(OC[C@@H]5CCCN5C)nc4c2F)N(C(C)c2cccnc2N)CCO3)c1C(F)(F)F` (single isomer, unassigned) [Compound 76, 3-((R or S)-1-(5-(5-amino-3-methyl-2-(trifluoromethyl)phenyl)-4-fluoro-2-(((S)-1-methylpyrrolidin-2-yl)methoxy)-8,9-dihydro-10H-7-oxa-1,3,6,10-tetraazacyclohepta[de]naphthalen-10-yl)ethyl)pyridin-2-amine], for which the pIC50 in assay [1] is 9.30; in assay [2] it was 7.74; in assay [3] it was 9.15.
Turning to `Cc1cc(N)cc(-c2nc3c4c(nc(OC[C@@H]5CCCN5C)nc4c2F)N(C(C)c2cccnc2N)CCO3)c1C(F)(F)F` (single isomer, unassigned) [Compound 77, 3-((R or S)-1-(5-(5-amino-3-methyl-2-(trifluoromethyl)phenyl)-4-fluoro-2-(((S)-1-methylpyrrolidin-2-yl)methoxy)-8,9-dihydro-10H-7-oxa-1,3,6,10-tetraazacyclohepta[de]naphthalen-10-yl)ethyl)pyridin-2-amine], the pIC50 was 7.42 in assay [1], below 7.00 in assay [2] and 7.43 in assay [3].
As to `Cc1cc(N)cc(-c2nc3c4c(nc(OC[C@H]5CCCN5CCF)nc4c2F)N(C(C)c2cccnc2N)CCO3)c1C(F)(F)F` (single isomer, unassigned) [Compound 78, 3-((R or S)-1-(5-(5-amino-3-methyl-2-(trifluoromethyl)phenyl)-4-fluoro-2-(((R)-1-(2-fluoroethyl)pyrrolidin-2-yl)methoxy)-8,9-dihydro-10H-7-oxa-1,3,6,10-tetraazacyclohepta[de]naphthalen-10-yl)ethyl)pyridin-2-amine], the pIC50 in assay [1] is 8.70; in assay [2], 7.38; in assay [3], 8.52.
In the same order, the values of `Cc1cc(N)cc(-c2nc3c4c(nc(OC[C@H]5CCCN5CCF)nc4c2F)N(C(C)c2cccnc2N)CCO3)c1C(F)(F)F` (single isomer, unassigned) [Compound 79, 3-((R or S)-1-(5-(5-amino-3-methyl-2-(trifluoromethyl)phenyl)-4-fluoro-2-(((R)-1-(2-fluoroethyl)pyrrolidin-2-yl)methoxy)-8,9-dihydro-10H-7-oxa-1,3,6,10-tetraazacyclohepta[de]naphthalen-10-yl)ethyl)pyridin-2-amine] are below 7.00, below 7.00 and below 7.00.
In the same order, the values of `Cc1cc(N)cc(-c2nc3c4c(nc(OC[C@@H]5C[C@@H](F)CN5C)nc4c2F)N(C(C)c2cccnc2N)CCO3)c1C(F)(F)F` (single isomer, unassigned) [Compound 80, 3-((R or S)-1-(5-(5-amino-3-methyl-2-(trifluoromethyl)phenyl)-4-fluoro-2-(((2S,4R)-4-fluoro-1-methylpyrrolidin-2-yl)methoxy)-8,9-dihydro-10H-7-oxa-1,3,6,10-tetraazacyclohepta[de]naphthalen-10-yl)ethyl)pyridin-2-amine] are 9.30, 7.72 and 9.15.
`Cc1cc(N)cc(-c2nc3c4c(nc(OC[C@@H]5C[C@@H](F)CN5C)nc4c2F)N(C(C)c2cccnc2N)CCO3)c1C(F)(F)F` (single isomer, unassigned) [Compound 81, 3-((R or S)-1-(5-(5-amino-3-methyl-2-(trifluoromethyl)phenyl)-4-fluoro-2-(((2S,4R)-4-fluoro-1-methylpyrrolidin-2-yl)methoxy)-8,9-dihydro-10H-7-oxa-1,3,6,10-tetraazacyclohepta[de]naphthalen-10-yl)ethyl)pyridin-2-amine]: the pIC50 in assay [1], in assay [2] and in assay [3] was below 7.00 each time.
For the molecule `Cc1c(F)c(N)cc(-c2nc3c4c(nc(OC[C@@H]5CCCN5C)nc4c2F)N(C(C)c2cccnc2N)CCO3)c1C(F)(F)F` (single isomer, unassigned) [Compound 85, 3-((R or S)-1-(5-(5-amino-4-fluoro-3-methyl-2-(trifluoromethyl)phenyl)-4-fluoro-2-(((S)-1-methylpyrrolidin-2-yl)methoxy)-8,9-dihydro-10H-7-oxa-1,3,6,10-tetraazacyclohepta[de]naphthalen-10-yl)ethyl)pyridin-2-amine], the results for the pIC50 in assay [1], in assay [2] and in assay [3] were 9.40, 7.96 and 8.70, respectively.
In the same order, the values of `Cc1c(F)c(N)cc(-c2nc3c4c(nc(OC[C@@H]5CCCN5C)nc4c2F)N(C(C)c2cccnc2N)CCO3)c1C(F)(F)F` (single isomer, unassigned) [Compound 86, 3-((R or S)-1-(5-(5-amino-4-fluoro-3-methyl-2-(trifluoromethyl)phenyl)-4-fluoro-2-(((S)-1-methylpyrrolidin-2-yl)methoxy)-8,9-dihydro-10H-7-oxa-1,3,6,10-tetraazacyclohepta[de]naphthalen-10-yl)ethyl)pyridin-2-amine] are 7.54, below 7.00 and 7.37.
The corresponding values for `CC(c1cccnc1N)N1CCOc2nc(-c3cc(N)cc(F)c3C(F)(F)F)c(F)c3nc(OC[C@@]45CCCN4C[C@H](F)C5)nc1c23` (single isomer, unassigned) [Compound 88, 3-((R or S)-1-(5-(5-amino-3-fluoro-2-(trifluoromethyl)phenyl)-4-fluoro-2-(((2R,7aS)-2-fluorotetrahydro-1H-pyrrolizin-7a(5H)-yl)methoxy)-8,9-dihydro-10H-7-oxa-1,3,6,10-tetraazacyclohepta[de]naphthalen-10-yl)ethyl)pyridin-2-amine] are 9.40, 8.52 and 9.00.
For the molecule `CC(c1cccnc1N)N1CCOc2nc(-c3cc(N)cc(F)c3C(F)(F)F)c(F)c3nc(OC[C@@]45CCCN4C[C@H](F)C5)nc1c23` (single isomer, unassigned) [Compound 89, 3-((R or S)-1-(5-(5-amino-3-fluoro-2-(trifluoromethyl)phenyl)-4-fluoro-2-(((2R,7aS)-2-fluorotetrahydro-1H-pyrrolizin-7a(5H)-yl)methoxy)-8,9-dihydro-10H-7-oxa-1,3,6,10-tetraazacyclohepta[de]naphthalen-10-yl)ethyl)pyridin-2-amine], the pIC50 in assay [1] was 7.59; in assay [2] it was below 7.00; in assay [3] it was 7.37.
`CC(c1cccnc1N)N1CCOc2nc(-c3cc(N)cc(F)c3C(F)(F)F)c(F)c3nc(OC[C@@H]4CCCN4C)nc1c23` (single isomer, unassigned) [Compound 90, 3-((R or S)-1-(5-(5-amino-3-fluoro-2-(trifluoromethyl)phenyl)-4-fluoro-2-(((S)-1-methylpyrrolidin-2-yl)methoxy)-8,9-dihydro-10H-7-oxa-1,3,6,10-tetraazacyclohepta[de]naphthalen-10-yl)ethyl)pyridin-2-amine]: the pIC50 is 8.70 in assay [1], 7.04 in assay [2] and 8.22 in assay [3].
The corresponding values for `CC(c1cccnc1N)N1CCOc2nc(-c3cc(N)cc(F)c3C(F)(F)F)c(F)c3nc(OC[C@@H]4CCCN4C)nc1c23` (single isomer, unassigned) [Compound 91, 3-((R or S)-1-(5-(5-amino-3-fluoro-2-(trifluoromethyl)phenyl)-4-fluoro-2-(((S)-1-methylpyrrolidin-2-yl)methoxy)-8,9-dihydro-10H-7-oxa-1,3,6,10-tetraazacyclohepta[de]naphthalen-10-yl)ethyl)pyridin-2-amine] are below 7.00, below 7.00 and below 7.00.
In the same order, the values of `CC(c1cccnc1N)N1CCOc2nc(-c3cc(N)cc(F)c3C(F)(F)F)c(F)c3nc(OC[C@@H]4C[C@@H](F)CN4C)nc1c23` (single isomer, unassigned) [Compound 92, 3-((R or S)-1-(5-(5-amino-3-fluoro-2-(trifluoromethyl)phenyl)-4-fluoro-2-(((2S,4R)-4-fluoro-1-methylpyrrolidin-2-yl)methoxy)-8,9-dihydro-10H-7-oxa-1,3,6,10-tetraazacyclohepta[de]naphthalen-10-yl)ethyl)pyridin-2-amine] are 9.00, 7.24 and 8.70.
